Experimental data reported in patent publication US7074789B2, “Kinase inhibitors” (Amgen Inc., priority 1999, dated 2006).
pIC50: −log10 of the molar value.

Columns and labels:
Type in all cases: biochemical
AKT = target: T1, AKT (Homo sapiens, UniProt Q9Y243); test: Kinase inhibition assay (33P transfer), AKT; details: Table 2, kinase inhibition class; read-out: AKT3-1
T1 construct: Kinases are expressed as either kinase domains or full length constructs; made in house
How it was run: (§1)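 Kinase domains or full-length kinases, GST- or His-tagged and expressed in E. coli or baculovirus/High Five cells, transferred 33PO4 from ATP onto plate-bound poly(Glu,Tyr) 4:1 or poly(Arg,Ser) 3:1. After incubation, plates were washed with 0.5% phosphoric acid and counted by liquid scintillation.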

Zap-70 = target: T2, Zap-70 (Homo sapiens, UniProt P43403); test: Kinase inhibition assay (33P transfer), Zap-70; details: Table 3; read-out: Zap-1
T2 construct: Kinases are expressed as either kinase domains or full length constructs; made in house
T2 sequence (P43403 1-619): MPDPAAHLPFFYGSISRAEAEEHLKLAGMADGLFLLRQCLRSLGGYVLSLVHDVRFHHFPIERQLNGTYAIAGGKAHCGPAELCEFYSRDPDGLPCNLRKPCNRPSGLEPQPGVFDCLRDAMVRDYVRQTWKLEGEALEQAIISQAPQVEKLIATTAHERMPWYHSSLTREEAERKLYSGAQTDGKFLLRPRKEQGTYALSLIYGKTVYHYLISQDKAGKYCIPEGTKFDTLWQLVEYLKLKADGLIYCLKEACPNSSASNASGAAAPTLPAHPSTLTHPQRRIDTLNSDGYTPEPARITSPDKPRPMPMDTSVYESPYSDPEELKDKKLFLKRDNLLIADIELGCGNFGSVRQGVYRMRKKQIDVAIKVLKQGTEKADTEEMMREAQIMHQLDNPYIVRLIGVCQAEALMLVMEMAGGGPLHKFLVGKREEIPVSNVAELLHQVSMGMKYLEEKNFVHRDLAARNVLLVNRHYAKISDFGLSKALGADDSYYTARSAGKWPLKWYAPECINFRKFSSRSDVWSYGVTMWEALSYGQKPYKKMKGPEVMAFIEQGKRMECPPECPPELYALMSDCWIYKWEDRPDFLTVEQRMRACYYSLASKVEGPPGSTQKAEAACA
How it was run: as §1

Itk = target: T3, Itk (Homo sapiens, UniProt Q08881); test: Kinase inhibition assay (33P transfer), Itk; details: Table 3; read-out: Itk-1
T3 construct: Kinases are expressed as either kinase domains or full length constructs; made in house
T3 sequence (Q08881 1-620): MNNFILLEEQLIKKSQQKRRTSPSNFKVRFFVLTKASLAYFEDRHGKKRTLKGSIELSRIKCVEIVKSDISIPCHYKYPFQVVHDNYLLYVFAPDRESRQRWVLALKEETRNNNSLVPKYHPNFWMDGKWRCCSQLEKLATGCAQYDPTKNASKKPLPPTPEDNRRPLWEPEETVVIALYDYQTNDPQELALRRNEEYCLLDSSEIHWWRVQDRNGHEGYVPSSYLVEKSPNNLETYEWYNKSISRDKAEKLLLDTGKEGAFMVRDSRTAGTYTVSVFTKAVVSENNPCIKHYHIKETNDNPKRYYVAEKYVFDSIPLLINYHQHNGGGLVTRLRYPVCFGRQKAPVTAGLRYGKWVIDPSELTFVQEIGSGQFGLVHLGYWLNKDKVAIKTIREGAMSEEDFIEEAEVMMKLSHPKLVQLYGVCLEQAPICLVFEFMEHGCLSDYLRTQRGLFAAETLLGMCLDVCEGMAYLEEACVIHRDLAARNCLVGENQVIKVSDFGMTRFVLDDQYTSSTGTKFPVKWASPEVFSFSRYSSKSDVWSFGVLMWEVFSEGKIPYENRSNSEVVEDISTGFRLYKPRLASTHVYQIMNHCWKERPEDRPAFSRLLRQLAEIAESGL
How it was run: (§2)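 Using immobilised substrate copolymers (poly(Glu,Tyr) 4:1; poly(Arg,Ser) 3:1) and [33P]ATP, purified fusion kinases were allowed to react; plates were then rinsed in 0.5% phosphoric acid and counted in a scintillation detector. Half-maximal inhibition of label transfer defines IC50.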

c-Met = target: T4, c-Met (Homo sapiens, UniProt P08581); test: Kinase inhibition assay (33P transfer), c-Met; details: Table 2, kinase inhibition class; read-out: Met-1
T4 construct: Kinases are expressed as either kinase domains or full length constructs; made in house
How it was run: as §2

Lck = target: T5, Lck (Homo sapiens, UniProt P06239); test: Kinase inhibition assay (33P transfer), Lck; details: Table 3; read-out: Lck-1
T5 construct: Kinases are expressed as either kinase domains or full length constructs; made in house
How it was run: as §1

EGFR = target: T6, EGFR (Homo sapiens, UniProt P00533); test: Kinase inhibition assay (33P transfer), EGFR; details: Table 2, kinase inhibition class; read-out: EGFR-1
T6 construct: Kinases are expressed as either kinase domains or full length constructs; made in house
How it was run: as §2

IGFR-1 = target: T7, IGFR-1 (Homo sapiens, UniProt P08069); test: Kinase inhibition assay (33P transfer), IGFR-1; details: Table 2, kinase inhibition class
T7 construct: Kinases are expressed as either kinase domains or full length constructs; made in house

Kdr = target: T8, Kdr (Homo sapiens, UniProt P35968); test: Kinase inhibition assay (33P transfer), Kdr; details: Table 3; read-out: KDR-1
T8 construct: Kinases are expressed as either kinase domains or full length constructs; made in house
How it was run: as §1

T6 sequence (P00533 25-1210, species assumed): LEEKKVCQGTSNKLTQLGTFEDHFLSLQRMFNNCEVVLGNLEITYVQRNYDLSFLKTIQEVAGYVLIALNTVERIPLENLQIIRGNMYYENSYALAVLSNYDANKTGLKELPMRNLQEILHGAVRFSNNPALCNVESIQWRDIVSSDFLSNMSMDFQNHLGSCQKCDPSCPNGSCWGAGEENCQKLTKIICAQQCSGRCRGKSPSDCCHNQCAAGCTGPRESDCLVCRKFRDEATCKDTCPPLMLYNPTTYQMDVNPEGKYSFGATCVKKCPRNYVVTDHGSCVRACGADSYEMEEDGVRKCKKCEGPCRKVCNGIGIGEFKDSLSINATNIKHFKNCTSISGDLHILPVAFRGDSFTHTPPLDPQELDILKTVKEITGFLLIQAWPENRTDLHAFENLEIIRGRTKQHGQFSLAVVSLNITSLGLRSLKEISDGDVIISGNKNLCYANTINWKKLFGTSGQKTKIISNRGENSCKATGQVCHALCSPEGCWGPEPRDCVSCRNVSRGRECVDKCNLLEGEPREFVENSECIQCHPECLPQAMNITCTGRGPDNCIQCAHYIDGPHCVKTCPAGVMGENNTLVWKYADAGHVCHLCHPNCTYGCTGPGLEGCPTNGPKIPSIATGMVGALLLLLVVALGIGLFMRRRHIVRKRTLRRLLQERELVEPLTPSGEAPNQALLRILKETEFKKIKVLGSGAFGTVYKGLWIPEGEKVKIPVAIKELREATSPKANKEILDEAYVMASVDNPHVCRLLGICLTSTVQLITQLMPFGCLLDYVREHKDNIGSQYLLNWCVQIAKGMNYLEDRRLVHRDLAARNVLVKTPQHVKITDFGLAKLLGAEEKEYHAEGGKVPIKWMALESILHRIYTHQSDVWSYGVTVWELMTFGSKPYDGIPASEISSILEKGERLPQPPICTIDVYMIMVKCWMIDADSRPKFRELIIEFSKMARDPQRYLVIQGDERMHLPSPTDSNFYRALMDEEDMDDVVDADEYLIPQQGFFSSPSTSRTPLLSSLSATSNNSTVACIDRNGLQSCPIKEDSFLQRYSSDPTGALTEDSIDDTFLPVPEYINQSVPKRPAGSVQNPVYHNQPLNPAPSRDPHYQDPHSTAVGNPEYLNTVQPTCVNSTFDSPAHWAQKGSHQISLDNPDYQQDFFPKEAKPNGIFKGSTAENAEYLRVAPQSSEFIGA
T8 sequence (P35968 20-1356, species assumed): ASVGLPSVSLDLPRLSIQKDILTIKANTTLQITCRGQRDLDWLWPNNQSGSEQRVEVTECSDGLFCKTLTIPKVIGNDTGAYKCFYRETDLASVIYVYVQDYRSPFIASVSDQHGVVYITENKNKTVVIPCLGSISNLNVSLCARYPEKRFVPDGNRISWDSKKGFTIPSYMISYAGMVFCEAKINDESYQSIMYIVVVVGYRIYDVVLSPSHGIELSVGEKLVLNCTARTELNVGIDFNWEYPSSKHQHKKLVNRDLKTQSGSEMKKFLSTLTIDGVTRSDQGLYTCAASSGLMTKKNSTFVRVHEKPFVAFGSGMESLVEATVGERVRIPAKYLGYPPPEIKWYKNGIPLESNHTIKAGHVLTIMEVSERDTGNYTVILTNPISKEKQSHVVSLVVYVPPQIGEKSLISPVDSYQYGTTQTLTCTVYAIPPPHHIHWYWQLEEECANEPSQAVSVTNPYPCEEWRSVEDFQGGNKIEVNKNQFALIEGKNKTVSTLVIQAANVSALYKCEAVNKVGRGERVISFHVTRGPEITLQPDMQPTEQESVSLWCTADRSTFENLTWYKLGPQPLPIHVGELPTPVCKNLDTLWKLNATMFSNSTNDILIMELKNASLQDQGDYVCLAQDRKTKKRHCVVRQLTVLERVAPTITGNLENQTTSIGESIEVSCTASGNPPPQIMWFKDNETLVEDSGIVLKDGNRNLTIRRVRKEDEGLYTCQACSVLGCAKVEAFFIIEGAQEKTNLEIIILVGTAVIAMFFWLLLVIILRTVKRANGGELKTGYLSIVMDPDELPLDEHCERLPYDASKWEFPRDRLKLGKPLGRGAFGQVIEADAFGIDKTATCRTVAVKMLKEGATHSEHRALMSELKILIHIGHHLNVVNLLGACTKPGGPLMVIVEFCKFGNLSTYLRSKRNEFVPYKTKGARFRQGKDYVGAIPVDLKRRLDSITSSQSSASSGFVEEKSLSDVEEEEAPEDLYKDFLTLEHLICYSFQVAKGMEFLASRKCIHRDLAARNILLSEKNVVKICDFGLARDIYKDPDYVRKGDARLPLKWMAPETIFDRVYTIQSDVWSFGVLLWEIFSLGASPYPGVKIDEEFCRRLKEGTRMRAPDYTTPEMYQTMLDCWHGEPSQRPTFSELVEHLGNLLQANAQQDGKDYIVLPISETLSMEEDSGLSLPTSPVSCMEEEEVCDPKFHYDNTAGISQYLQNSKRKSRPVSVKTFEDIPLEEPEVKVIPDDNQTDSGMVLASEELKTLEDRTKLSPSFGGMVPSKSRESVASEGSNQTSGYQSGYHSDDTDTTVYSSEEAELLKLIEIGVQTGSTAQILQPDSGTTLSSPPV
T1 sequence (Q9Y243 whole entry, the tested form may be a part): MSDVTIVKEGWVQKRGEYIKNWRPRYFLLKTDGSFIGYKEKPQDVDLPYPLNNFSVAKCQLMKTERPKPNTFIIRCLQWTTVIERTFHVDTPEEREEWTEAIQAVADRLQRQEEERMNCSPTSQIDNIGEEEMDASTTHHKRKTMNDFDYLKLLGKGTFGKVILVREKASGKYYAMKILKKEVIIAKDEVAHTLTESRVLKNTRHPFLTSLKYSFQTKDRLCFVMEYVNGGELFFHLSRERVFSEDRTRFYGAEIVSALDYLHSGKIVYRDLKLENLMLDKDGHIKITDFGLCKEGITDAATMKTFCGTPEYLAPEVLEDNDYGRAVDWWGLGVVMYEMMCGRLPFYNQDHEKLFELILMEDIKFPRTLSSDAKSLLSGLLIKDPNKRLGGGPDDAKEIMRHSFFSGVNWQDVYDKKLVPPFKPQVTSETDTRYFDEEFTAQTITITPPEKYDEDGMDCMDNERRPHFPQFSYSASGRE
T4 sequence (P08581 25-1390): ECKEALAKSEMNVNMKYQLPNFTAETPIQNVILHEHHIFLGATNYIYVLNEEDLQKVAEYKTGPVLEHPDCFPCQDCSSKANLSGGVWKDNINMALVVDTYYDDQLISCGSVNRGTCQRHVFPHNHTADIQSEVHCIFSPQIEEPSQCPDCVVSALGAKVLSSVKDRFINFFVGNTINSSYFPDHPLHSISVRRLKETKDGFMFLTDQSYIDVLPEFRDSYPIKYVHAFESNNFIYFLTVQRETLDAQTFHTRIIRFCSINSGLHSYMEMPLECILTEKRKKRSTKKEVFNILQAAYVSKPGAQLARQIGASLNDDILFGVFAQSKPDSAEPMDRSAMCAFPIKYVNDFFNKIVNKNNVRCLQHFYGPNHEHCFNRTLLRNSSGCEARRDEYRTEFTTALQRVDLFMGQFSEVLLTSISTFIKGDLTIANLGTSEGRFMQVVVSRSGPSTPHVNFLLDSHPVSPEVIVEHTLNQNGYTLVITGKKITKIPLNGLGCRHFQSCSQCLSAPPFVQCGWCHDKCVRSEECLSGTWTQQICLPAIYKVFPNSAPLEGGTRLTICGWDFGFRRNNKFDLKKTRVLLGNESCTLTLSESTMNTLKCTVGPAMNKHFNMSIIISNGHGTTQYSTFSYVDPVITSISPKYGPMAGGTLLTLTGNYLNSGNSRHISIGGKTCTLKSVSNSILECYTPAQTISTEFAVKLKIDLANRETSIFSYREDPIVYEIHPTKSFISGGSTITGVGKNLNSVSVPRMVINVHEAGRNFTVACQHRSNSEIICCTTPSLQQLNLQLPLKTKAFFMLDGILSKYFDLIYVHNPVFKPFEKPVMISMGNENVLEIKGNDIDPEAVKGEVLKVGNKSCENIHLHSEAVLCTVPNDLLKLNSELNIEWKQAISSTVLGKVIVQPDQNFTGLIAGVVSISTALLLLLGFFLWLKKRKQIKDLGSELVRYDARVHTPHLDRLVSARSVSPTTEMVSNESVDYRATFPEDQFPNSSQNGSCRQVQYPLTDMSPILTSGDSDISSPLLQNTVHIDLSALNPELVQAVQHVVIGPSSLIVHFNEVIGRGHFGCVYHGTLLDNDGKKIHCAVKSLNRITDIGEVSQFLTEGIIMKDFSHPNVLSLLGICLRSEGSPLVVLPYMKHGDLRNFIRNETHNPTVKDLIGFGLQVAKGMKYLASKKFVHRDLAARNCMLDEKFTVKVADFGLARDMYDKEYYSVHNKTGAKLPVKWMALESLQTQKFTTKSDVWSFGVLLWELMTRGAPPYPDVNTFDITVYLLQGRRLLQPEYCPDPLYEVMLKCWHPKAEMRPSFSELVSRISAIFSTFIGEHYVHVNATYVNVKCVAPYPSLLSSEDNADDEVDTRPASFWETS
T5 sequence (P06239 whole entry, species assumed, the tested form may be a part): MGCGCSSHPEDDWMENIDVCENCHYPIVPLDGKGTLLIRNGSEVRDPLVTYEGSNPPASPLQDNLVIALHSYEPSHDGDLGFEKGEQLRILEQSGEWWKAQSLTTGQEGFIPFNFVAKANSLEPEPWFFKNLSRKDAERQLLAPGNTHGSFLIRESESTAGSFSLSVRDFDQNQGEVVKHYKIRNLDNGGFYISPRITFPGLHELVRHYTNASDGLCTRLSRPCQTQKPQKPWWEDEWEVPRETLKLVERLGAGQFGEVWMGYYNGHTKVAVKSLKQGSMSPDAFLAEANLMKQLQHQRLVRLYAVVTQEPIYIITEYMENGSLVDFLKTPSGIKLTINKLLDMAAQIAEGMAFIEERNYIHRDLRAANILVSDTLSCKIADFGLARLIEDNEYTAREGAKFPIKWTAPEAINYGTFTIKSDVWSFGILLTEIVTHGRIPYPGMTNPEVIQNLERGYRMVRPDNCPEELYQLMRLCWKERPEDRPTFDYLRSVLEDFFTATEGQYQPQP

COc1cc(Nc2ncnc(-n3ccnc3)n2)cc(OC)c1OC [Compound 183]
pIC50 (AKT): < 4.86
pIC50 (Zap-70): < 4.86
pIC50 (Itk): < 4.86
pIC50 (c-Met): < 4.86
pIC50 (Lck): < 4.86
pIC50 (EGFR): < 4.86
pIC50 (IGFR-1): < 4.86
pIC50 (Kdr): 4.97 to 5.14

Nc1nc2ccccc2n1-c1ncnc(Cl)n1 [Compound 1029]
pIC50 (AKT): < 4.74
pIC50 (Zap-70): 4.85 to 5.01
pIC50 (Itk): < 4.74
pIC50 (c-Met): < 4.74
pIC50 (Lck): < 4.74
pIC50 (EGFR): < 4.74
pIC50 (IGFR-1): < 4.74
pIC50 (Kdr): 4.74 to 4.85

COc1cc(Nc2ncnc(-c3cccs3)n2)cc(OC)c1OC [Compound 217]
pIC50 (AKT): < 4.88
pIC50 (Zap-70): < 4.88
pIC50 (Itk): < 4.88
pIC50 (c-Met): 4.88 to 4.99
pIC50 (Lck): 5.16 to 5.93
pIC50 (EGFR): < 4.88
pIC50 (IGFR-1): < 4.88
pIC50 (Kdr): 4.99 to 5.16

OCCCNc1ncnc(-c2ccccc2)n1 [Compound 971]
pIC50 (AKT): < 4.71
pIC50 (Zap-70): < 4.71
pIC50 (Itk): < 4.71
pIC50 (c-Met): < 4.71
pIC50 (Lck): < 4.71
pIC50 (EGFR): < 4.71
pIC50 (IGFR-1): < 4.71
pIC50 (Kdr): < 4.71

COc1cc(Nc2ncnc(-c3cccnc3)n2)cc(OC)c1OC [Compound 219]
pIC50 (AKT): < 4.88
pIC50 (Zap-70): < 4.88
pIC50 (Itk): < 4.88
pIC50 (c-Met): < 4.88
pIC50 (Lck): < 4.88
pIC50 (EGFR): < 4.88
pIC50 (IGFR-1): < 4.88
pIC50 (Kdr): 5.15 to 5.93

COc1cc(Nc2ncnc(N3CCN(c4ccccn4)CC3)n2)cc(OC)c1OC [Compound 213]
pIC50 (AKT): < 4.97
pIC50 (Zap-70): < 4.97
pIC50 (Itk): < 4.97
pIC50 (c-Met): < 4.97
pIC50 (Lck): < 4.97
pIC50 (EGFR): < 4.97
pIC50 (IGFR-1): < 4.97
pIC50 (Kdr): 5.25 to 6.02

COc1cc(Nc2ncnc(N3CCOCC3)n2)cc(OC)c1OC [Compound 209]
pIC50 (AKT): 4.89 to 5.00
pIC50 (Zap-70): < 4.89
pIC50 (Itk): < 4.89
pIC50 (c-Met): < 4.89
pIC50 (Lck): < 4.89
pIC50 (EGFR): < 4.89
pIC50 (IGFR-1): < 4.89
pIC50 (Kdr): < 4.89

Clc1ncnc(Nc2ccc(OCc3ccccc3)cc2)n1 [Compound 153]
pIC50 (AKT): < 4.84
pIC50 (Zap-70): < 4.84
pIC50 (Itk): < 4.84
pIC50 (c-Met): < 4.84
pIC50 (Lck): < 4.84
pIC50 (EGFR): < 4.84
pIC50 (IGFR-1): < 4.84
pIC50 (Kdr): 4.84 to 4.95

COc1cc(Nc2ncnc(-c3ccnc(Cl)c3)n2)cc(OC)c1OC [Compound 331]
pIC50 (AKT): < 4.92
pIC50 (Zap-70): < 4.92
pIC50 (Itk): < 4.92
pIC50 (c-Met): < 4.92
pIC50 (Lck): < 4.92
pIC50 (EGFR): < 4.92
pIC50 (IGFR-1): < 4.92
pIC50 (Kdr): < 4.92

CC(C)(C)OC(=O)Nc1ccc(Nc2ncnc(Nc3ccc(OCc4ccccc4)cc3)n2)cc1 [Compound 162]
pIC50 (AKT): 5.03 to 5.14
pIC50 (Zap-70): < 5.03
pIC50 (Itk): < 5.03
pIC50 (c-Met): < 5.03
pIC50 (Lck): < 5.03
pIC50 (EGFR): < 5.03
pIC50 (IGFR-1): < 5.03
pIC50 (Kdr): 5.14 to 5.31

COc1cccc(Nc2ncnc(-c3cccs3)n2)n1 [Compound 362]
pIC50 (AKT): < 4.80
pIC50 (Zap-70): < 4.80
pIC50 (Itk): < 4.80
pIC50 (c-Met): < 4.80
pIC50 (Lck): < 4.80
pIC50 (EGFR): < 4.80
pIC50 (IGFR-1): < 4.80
pIC50 (Kdr): < 4.80

CCOC(=O)Cc1ccc(Nc2ncnc(-c3ccccc3)n2)cc1 [Compound 164]
pIC50 (AKT): < 4.87
pIC50 (Zap-70): < 4.87
pIC50 (Itk): < 4.87
pIC50 (c-Met): < 4.87
pIC50 (Lck): < 4.87
pIC50 (EGFR): < 4.87
pIC50 (IGFR-1): < 4.87
pIC50 (Kdr): < 4.87
